Measured values reported in paper PMC6057649, “Development of NanoLuc-PEST expressing Leishmania mexicana as a new drug discovery tool for axenic- and intramacrophage-based assays” (PLoS Neglected Tropical Diseases, 2018).

System: NanoLuc-PEST expressing L. mexicana axenic amastigotes
Test: microbe, parasite or virus in culture
Format: cell-based
Conditions: for Relative Bioluminescence (%) / viability at 2 µM / viability at 10 µM: 72 hours, relative to DMSO only control, n = 4; for EC50: read-out: EC50, Axenic Amastigotes; for viability at 2 µM / viability at 10 µM: Leishmania mexicana, read-out: Relative Bioluminescence (%)
[1] = hit compounds from the axenic amastigote screen, S3 Table

Row | SMILES | Relative Bioluminescence (%) (2 µM compound) | Relative Bioluminescence (%) (10 µM compound) | also measured
1 | CCc1nc2ccccc2n1CC(O)COc1cc(C)ccc1Cl (stereo not shown) [MMV676449] | 92.26 | 88.05 | 
2 | COc1ccc(Nc2ccccc2NC(=O)c2ccc(=O)[nH]c2)cc1 [MMV676554] | 97.83 | 103.74 | 
3 | CCCS(=O)(=O)N1CCC(CO)(Cc2ccccc2C(F)(F)F)CC1 [MMV001059] | 109.79 | 96.75 | 
4 | CNc1cc(C)nc(C2CN(C(=O)c3n[nH]c4ccccc34)CCO2)c1 (stereo not shown) [MMV689709] | 77.39 | 68.10 | 
5 | CCc1ccc(C(NCc2nc(N)nc(N(C)C)n2)C(C)C)cc1 (stereo not shown) [MMV1019989] | 59.90 | 45.92 | 
6 | CS(=O)(=O)Cc1nc2ccccc2oc1=O [MMV553002] | 72.57 | 58.91 | 
7 | Cc1nnc(NCc2cccc(Cl)c2)c2ccccc12 [MMV676555] | 104.08 | 90.53 | 
8 | COc1cccc2c(C)nc(N=C(N)N)nc12 [MMV000907] | 95.69 | 78.62 | 
9 | Cc1cc(Cl)ccc1NC(=O)CCc1ccc(S(=O)(=O)NCC(C)C)cc1 [MMV161996] | 75.91 | 98.90 | 
10 | Cc1cccc(Cn2ccc(NC(=O)c3ccc4c(c3)OCO4)n2)c1 [MMV676386] | 127.03 | 120.21 | 
11 | O=C(Nc1ccccc1)c1ccc(-c2cc3ccncc3cc2OC2CCNCC2)s1 [MMV024035] | 86.60 | 79.61 | 
12 | COc1ccc(C2=NN(C3CCCCCC3)C(=O)[C@@H]3CC=CC[C@H]23)cc1OCCCCOc1ccc(-c2nn[nH]n2)cc1 [MMV690027] | 96.72 | 33.47 | 
13 | NC(CC(=O)c1ccc(Cl)cc1Cl)C(Cl)(Cl)Cl (stereo not shown) [MMV676468] | 106.85 | 84.33 | 
14 | CC(C)(C(=O)Nc1ccc(F)cc1)n1cc(-c2ccccc2F)cn1 [MMV687239] | 106.04 | 118.80 | 
15 | CN1CCN(c2nccc3[nH]c(-c4cccc(F)c4)cc23)CC1 [MMV393144] | 92.24 | 81.97 | 
16 | O=C(NC1CC1)c1ccc(N2CCOc3ccc(Cl)cc32)s1 [MMV020537] | 116.22 | 146.04 | 
17 | COc1cccc(-n2nnnc2S(C)(=O)=O)c1 [MMV272144] | 2.64 | 0.19 | EC50 [1]: 640 nM
18 | Cc1cc(C2=NOC(c3cc(Cl)c(F)c(Cl)c3)(C(F)(F)F)C2)ccc1C(=O)NCc1ccc2c(c1)C(C)(C)OB2O (stereo not shown) [MMV687776] | 57.43 | -1.15 | 
19 | CCN(CC)CCCCCCNc1cc(OC)cc2c(C)ccnc12 [MMV000063, Sitamaquine, reference compound] |  |  | viability at 2 µM (2 µM compound): 69.6%; viability at 10 µM (10 µM compound): 73.6%
20 | CC(C)(C)OC(=O)N1CCN(c2cc(-c3ccc(Oc4ccccc4)cc3)n[nH]2)CC1 [MMV676057] | 119.16 | 36.52 | 
21 | Cc1cc(NC(=O)c2ccc(Oc3ccc(Cl)cc3O)o2)no1 [MMV688955] | 95.96 | 96.76 | 
22 | O=C(Nc1ccccc1-c1nc2c(C(=O)O)cccc2o1)c1ccccc1 [MMV676162] | 7.36 | -0.97 | EC50 [1]: 960 nM

Row | SMILES | Relative Bioluminescence (%) (2 µM compound) | Relative Bioluminescence (%) (10 µM compound) | also measured
23 | c1ccc(-c2nc(NC3CCCCC3)cc(C3CC3)n2)nc1 [MMV021013] | 11.73 | 1.47 | 
24 | CC(=O)Oc1ccccc1C(=O)Nc1ncc([N+](=O)[O-])s1 [MMV688991, Nitazoxanide, reference compound] |  |  | viability at 2 µM (2 µM compound): 71.1%; viability at 10 µM (10 µM compound): 0.38%
25 | COC(=O)Nc1nc2ccc(C(=O)c3ccccc3)cc2[nH]1 [MMV003152, Mebendazole, reference compound] |  |  | viability at 2 µM (2 µM compound): 0.9%; viability at 10 µM (10 µM compound): -0.49%; EC50, Axenic Amastigotes [1]: could not be resolved
26 | COc1cc(C2=NCCN2)ccc1-c1cn(-c2cccc(C3=NCCN3)c2)nn1 [MMV688407] | 99.20 | 50.94 | 
27 | Cc1ccccc1CN1CCC(O)(c2ccc(Cl)c(C(F)(F)F)c2)CC1 [MMV688846] | 63.77 | 60.58 | 
28 | COc1ccccc1C(C)NCC(=O)Nc1cc(C(F)(F)F)ccc1Cl (stereo not shown) [MMV020321] | 118.65 | 131.13 | 
29 | CCC(Sc1nc2ccccc2o1)C(=O)Nc1nnc(C)s1 (stereo not shown) [MMV611037] | 55.30 | 44.60 | 
30 | CN1CCN(CCCOc2ncc(Nc3ncc(-c4ccc(C(F)(F)F)c(F)c4)nc3C(N)=O)cn2)CC1 [MMV687812] | 66.08 | 77.79 | 
31 | CNC(=O)C1Cc2ccccc2N1C(=O)Cc1ccc(F)cc1 (stereo not shown) [MMV188296] | 81.46 | 106.72 | 
32 | COc1ccc2nccc(NC(=O)C3CCN(CCc4ccc(Cl)cc4)CC3)c2n1 [MMV688844] | 77.54 | 91.56 | 
33 | O=S(=O)(c1ccc(Cl)cc1)N1CCN(C(=S)NCc2ccco2)CC1 [MMV000858] | 100.91 | 108.52 | 
34 | O=C(Nc1nc(-c2ccccn2)cs1)C1CC1c1ccccc1F (stereo not shown) [MMV1028806] | 58.01 | -0.60 | 
35 | Cc1nc(-c2ccccn2)nc(NCCc2ccc(S(C)(=O)=O)cc2)c1Cl [MMV658993] | 93.82 | 64.93 | 
36 | CC(C)(C)n1nc(Cc2ccc(F)c(Cl)c2)c2c(N)ncnc21 [MMV688852] | 73.28 | 34.77 | 
37 | c1ccc(Oc2ccc(-c3cc(N4CCOCC4)n[nH]3)cc2)cc1 [MMV045105] | 73.02 | 44.11 | 
38 | COc1cccc(NC(=O)c2c(NC(=O)c3cccnc3)sc3c2CCC3)c1 [MMV228911] | 73.96 | 11.53 | 
39 | COC(=O)c1ccc(F)cc1NS(=O)(=O)c1cccc(-c2cnn(Cc3ccccc3)c2)c1 [MMV688350] | 101.75 | 91.24 | 
40 | CC(=O)N(CCN(C(=O)c1ccc(F)cc1)c1ccccc1)c1ccccc1 [MMV676064] | 105.34 | 123.90 | 
41 | CC(c1cc(Cl)cc(Cl)c1)N(C)c1ncc2c(N)nc(N)nc2n1 (stereo not shown) [MMV689437] | 37.21 | 1.17 | 
42 | CCCn1nnc(NC(=O)COc2ccc(C3CCCCC3)cc2)n1 [MMV676597] | 85.91 | 73.07 | 
43 | CC[C@@H](CO)NCCN[C@@H](CC)CO [MMV687801, Ethambutol, reference compound] |  |  | viability at 2 µM (2 µM compound): 98.6%; viability at 10 µM (10 µM compound): 127%
44 | COc1ccccc1OCCCCn1c(C2CC2)nc2ccccc21 [MMV676474] | 84.28 | 88.48 | 
